Reference: ChEMBL document CHEMBL4406865, “Design, synthesis and biological evaluation of novel semicarbazone-selenochroman-4-ones hybrids as potent antifungal agents” (2019)
Converted amounts (≈) assume the structure as drawn.

Assays:
Format in all cases: functional
Candida albicans [1] = assay: Antifungal activity against Candida albicans CPCC400616 measured at 24 hrs by CLSI protocol based microbroth dilution method; conditions: CPCC400616, 24 h
Cryptococcus neoformans = assay: Antifungal activity against Cryptococcus neoformans CGMCC2.3161 measured at 72 hrs by CLSI protocol based microbroth dilution method; conditions: CGMCC2.3161, 72 h
Aspergillus fumigatus = assay: Antifungal activity against Aspergillus fumigatus CGMCC 3.7795 measured at 72 hrs by CLSI protocol based microbroth dilution method; conditions: CGMCC 3.7795, 72 h
[Candida] zeylanoides = Antifungal activity against Candida zeylanoides CGMCC2.3739 measured at 24 hrs by CLSI protocol based microbroth dilution method; conditions: Dujonia zeylanoides, CGMCC2.3739, 24 h
Candida albicans [2] = assay: Antifungal activity against Candida albicans SC5314 incubated for 24 hrs by CLSI protocol based microbroth dilution method; conditions: SC5314, 24 h
Candida albicans [3] = assay: Antifungal activity against fluconazole-resistant Candida albicans CaR incubated for 24 hrs by CLSI protocol based microbroth dilution method
Candida albicans [4] = assay: Antifungal activity against fluconazole-resistant Candida albicans isolate 17 incubated for 24 hrs by CLSI protocol based microbroth dilution method; conditions: isolate 17, 24 h
Candida albicans [5] = assay: Antifungal activity against fluconazole-resistant Candida albicans isolate 100 incubated for 24 hrs by CLSI protocol based microbroth dilution method; conditions: isolate 100, 24 h
Candida albicans [6] = assay: Antifungal activity against fluconazole-resistant Candida albicans isolate 103 incubated for 24 hrs by CLSI protocol based microbroth dilution method; conditions: isolate 103, 24 h

Row | Compound | MIC90 (Candida albicans [1]) [µg/mL] | MIC90 (Cryptococcus neoformans) [µg/mL] | MIC90 (Aspergillus fumigatus) [µg/mL] | MIC90 ([Candida] zeylanoides) [µg/mL] | MIC90 (Candida albicans [2]) [µg/mL] | MIC90 (Candida albicans [3]) [µg/mL] | MIC90 (Candida albicans [4]) [µg/mL] | MIC90 (Candida albicans [5]) [µg/mL] | MIC90 (Candida albicans [6]) [µg/mL]
1 | Cc1ccc(C)c(NC(=S)N/N=C2\CC[Se]c3ccccc32)c1 | 16 (≈ 41.2 µM) | 16 (≈ 41.2 µM) | > 128 | 128 (≈ 330 µM) | 8 (≈ 20.6 µM) | – | – | – | –
2 | O=C(N/N=C1\CC[Se]c2ccc(F)cc21)Nc1cc(Cl)cc(Cl)c1 | > 128 | > 128 | > 128 | > 128 | > 128 | – | – | – | –
3 | OC(Cn1cncn1)(Cn1cncn1)c1ccc(F)cc1F [FLUCONAZOLE] | 2 (≈ 6.53 µM) | 1 (≈ 3.27 µM) | > 128 | 2 (≈ 6.53 µM) | 1 (≈ 3.27 µM) | > 128 | 128 (≈ 418 µM) | 128 (≈ 418 µM) | > 128
4 | Cc1ccc2c(c1)/C(=N/NC(=S)Nc1ccccc1)CC[Se]2 | 64 (≈ 171 µM) | 16 (≈ 42.7 µM) | > 128 | > 128 | 64 (≈ 171 µM) | – | – | – | –
5 | O=C(N/N=C1\CC[Se]c2ccc(F)cc21)Nc1ccccc1Cl | 8 (≈ 20.2 µM) | 16 (≈ 40.3 µM) | > 128 | 8 (≈ 20.2 µM) | 2 (≈ 5.04 µM) | – | – | – | –
6 | Cc1ccc2c(c1)/C(=N/NC(=S)NN)CC[Se]2 | 8 (≈ 25.5 µM) | 4 (≈ 12.8 µM) | > 128 | > 128 | 8 (≈ 25.5 µM) | – | – | – | –
7 | CCc1ccccc1NC(=O)NN | 64 (≈ 357 µM) | 32 (≈ 179 µM) | > 128 | 64 (≈ 357 µM) | 32 (≈ 179 µM) | – | – | – | –
8 | NNC(=S)N/N=C1\CC[Se]c2ccc(F)cc21 | 2 (≈ 6.3 µM) | 4 (≈ 12.6 µM) | > 128 | 64 (≈ 202 µM) | 4 (≈ 12.6 µM) | 8 (≈ 25.2 µM) | 8 (≈ 25.2 µM) | 4 (≈ 12.6 µM) | 2 (≈ 6.3 µM)
9 | S=C(N/N=C1\CC[Se]c2ccccc21)Nc1ccccc1 | 0.5 (≈ 1.39 µM) | 8 (≈ 22.2 µM) | > 128 | 1 (≈ 2.78 µM) | 4 (≈ 11.1 µM) | 64 (≈ 178 µM) | 4 (≈ 11.1 µM) | 32 (≈ 88.8 µM) | > 128
10 | Cc1ccc2c(c1)C(=O)CC[Se]2 | 32 (≈ 142 µM) | > 128 | > 128 | > 128 | 4 (≈ 17.8 µM) | – | – | – | –
11 | COc1cccc(NC(=S)N/N=C2\CC[Se]c3ccc(F)cc32)c1 | 8 (≈ 19.6 µM) | 1 (≈ 2.45 µM) | > 128 | 2 (≈ 4.9 µM) | 16 (≈ 39.2 µM) | – | – | – | –
12 | Cc1ccc(NC(=S)N/N=C2\CC[Se]c3ccc(F)cc32)cc1 | 8 (≈ 20.4 µM) | 2 (≈ 5.1 µM) | > 128 | 16 (≈ 40.8 µM) | 32 (≈ 81.6 µM) | – | – | – | –
13 | Cc1ccc(C)c(NC(=S)N/N=C2\CC[Se]c3ccc(C)cc32)c1 | 2 (≈ 4.97 µM) | 16 (≈ 39.8 µM) | > 128 | 128 (≈ 318 µM) | 2 (≈ 4.97 µM) | – | – | – | –
14 | Cc1ccc2c(c1)/C(=N/NC(=O)Nc1cc(Cl)cc(Cl)c1)CC[Se]2 | > 128 | > 128 | > 128 | > 128 | > 128 | – | – | – | –
15 | Cc1ccc(NC(=S)N/N=C2\CC[Se]c3ccccc32)cc1 | 8 (≈ 21.4 µM) | 8 (≈ 21.4 µM) | > 128 | 128 (≈ 342 µM) | 64 (≈ 171 µM) | – | – | – | –
16 | O=C(N/N=C1\CC[Se]c2ccc(F)cc21)Nc1cccc(Br)c1 | 16 (≈ 36.3 µM) | 16 (≈ 36.3 µM) | > 128 | > 128 | 64 (≈ 145 µM) | – | – | – | –
17 | CCOc1ccc(NC(=O)N/N=C2\CC[Se]c3ccc(F)cc32)cc1 | 8 (≈ 19.7 µM) | 32 (≈ 78.8 µM) | > 128 | 16 (≈ 39.4 µM) | 4 (≈ 9.84 µM) | – | – | – | –
18 | Cc1ccc(C)c(NC(=O)N/N=C2\CC[Se]c3ccc(F)cc32)c1 | 8 (≈ 20.5 µM) | > 128 | > 128 | > 128 | 4 (≈ 10.2 µM) | – | – | – | –
19 | COc1ccc(OC)c(NC(=S)N/N=C2\CC[Se]c3ccc(C)cc32)c1 | 64 (≈ 147 µM) | 32 (≈ 73.7 µM) | > 128 | 128 (≈ 295 µM) | 32 (≈ 73.7 µM) | – | – | – | –
